37 molecules from patent publication US20160368895A1, “PULMONARY HYPERTENSION TREATING AGENT” (THE UNIVERSITY OF TOKYO, priority 2013, published 2016) can be followed below.

SMILES strings stand for the structures.

For test [1], the target named is T1, human PGI2 receptors (hIP) (Homo sapiens, UniProt P43119).
T1 construct: expressed in transfected cells; host or cells: CHO-K1
Nature of the test: Method C: effect on epoprostenol-cAMP production curve in CHO/hIP cells (left shift value). It counts as cell-based. The method, then: The effect of a test compound on the cAMP production curve with respect to the IP agonist epoprostenol (manufactured by GlaxoSmithKline) was investigated using CHO-K1 cells (CHO/hIP cells) in which human PGI2 receptors (hIP) are stably expressed.
(§1) An amount of 5 μL of a mixture (diluted in F-12 culture medium (manufactured by GIBCO) including 0.1% BSA) of epoprostenol dissolved in DMSO and a test compound dissolved in DMSO was dispensed in advance into a 384-well black microplate, and 5 μL of CHO/hIP cells suspended at a concentration of 1.4×10^6 cells/mL in F-12 culture medium including 0.1% BSA were added to the microplate. After 40 minutes of incubation at room temperature, the amount of cAMP was measured using a cAMP assay kit (cAMP HiRange, manufactured by Cisbio Bioassays). Specifically, 5 μL of a cAMP-d2 solution (including a cell lysate) from the kit were added and the reaction was stopped, then 5 μL of a fluorescence-labeled cAMP antibody solution from the kit were added and incubation was performed for 1 hour at room temperature, after which fluorescence was measured using a PHERAstar plate reader (manufactured by BMG) in HTRF (registered trademark) mode. The amount of cAMP in each well was calculated from a cAMP calibration curve obtained using a standard sample, and an epoprostenol-cAMP production curve for the presence of various concentrations of the test compound was created.
(In general: Cyclic AMP is a second messenger, typically raised through Gs and lowered through Gi signalling.)

Test [2] has as its target T1, human PGI2 receptors (hIP). The test can be described thus: Method B: positive allosteric modulator activity, cAMP in CHO/hIP cells with 1 nM epoprostenol. In kind it is cell-based. The settings on record: cAMP relative to 1 nM epoprostenol alone. As for the experimental part:
The positive allosteric modulator activity of a test compound was measured as a change in the amount of intracellular cyclic AMP (cAMP) in the presence of 1 nM of the IP agonist epoprostenol (manufactured by GlaxoSmithKline), using CHO-K1 cells (CHO/hIP cells) in which human PGI2 receptors (hIP) are stably expressed.
as §1, with “and” for “and an epoprostenol-cAMP production curve for”, “activity” for “presence”, “each” for “various concentrations of the”, “is noted below as a ratio T/C (%) based on the amount of cAMP for 1 nM of epoprostenol alone.” for “was created.”

The mark [3] stands for this setting: Table 4, concentration of test compound that halves the EC50 of epoprostenol.
Setting [4] is: Table 5, concentration of test compound that halves the EC50 of epoprostenol.

T1 sequence (P43119 whole entry): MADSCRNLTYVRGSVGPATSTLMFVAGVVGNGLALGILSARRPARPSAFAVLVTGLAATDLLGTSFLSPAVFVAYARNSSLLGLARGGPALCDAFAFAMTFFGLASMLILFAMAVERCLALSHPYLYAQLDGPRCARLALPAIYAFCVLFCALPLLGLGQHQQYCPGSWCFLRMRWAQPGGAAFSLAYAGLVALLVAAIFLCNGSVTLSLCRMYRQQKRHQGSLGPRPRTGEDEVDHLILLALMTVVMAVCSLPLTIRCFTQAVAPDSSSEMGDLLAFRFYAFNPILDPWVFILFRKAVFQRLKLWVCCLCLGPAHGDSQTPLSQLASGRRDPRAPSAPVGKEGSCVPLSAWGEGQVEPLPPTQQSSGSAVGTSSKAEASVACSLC

As for `CC(C)(C)n1nnnc1C(c1ccccc1OCc1ccccc1)N1CCc2ccccc2C1` (stereo not shown) [Example 1, 2-((2-(benzyloxy)phenyl)(1-tert-butyl-1H-tetrazol-5-yl)methyl)-1,2,3,4-tetrahydroisoquinoline], the left shift value in test [1] (setting [3]) was 24.9 µM. Moreover, the T/C (usually the ratio of treated to control) in test [2] (test concentration 10 uM) is 151.7%. The like results for `CC(C)(C)n1nnnc1C(c1ccccc1Br)N1CCc2ccccc2C1` (stereo not shown) [Example 2] were, in that order, 15.5 µM and 152.5%.

`Cc1ccc(C(c2nnnn2C(C)(C)C)N2CCc3ccccc3C2)cc1` (stereo not shown) [Example 3]: in test [1] (setting [3]), the left shift value came out at 71.4 µM. The same molecule displayed a T/C in test [2] (test concentration 5 uM) of 100.6%. Regarding `CC(C)(C)n1nnnc1C(c1ccc(Br)cc1)N1CCc2ccccc2C1` (stereo not shown) [Example 4], the left shift value in test [1] (setting [3]) was determined as 35.7 µM. In test [2] (test concentration 5 uM), this molecule gave a T/C of 100.1%.

As to `CC(C)(C)n1nnnc1C(c1ccc(O)cc1)N1CCc2ccccc2C1` (stereo not shown) [Example 5], in test [1] (setting [3]), the left shift value was 10.9 µM. Besides, the T/C in test [2] (test concentration 10 uM) came out at 156.4%. In turn, `CC(C)(C)n1nncc1C(c1ccc(C(F)(F)F)cc1)N1CCc2ccccc2C1` (stereo not shown) [Example 6] displayed a T/C in test [2] (test concentration 10 uM) of 93.7%. As to `CC(C)(C)n1nnnc1C1c2ccc(F)cc2SC2Cc3ccccc3CN21` (stereo not shown) [Example 7], in test [1] (setting [3]), the left shift value was found to be 24.1 µM. The same molecule came in with a T/C in test [2] (test concentration 10 uM) of 127.6%. `COc1ccc(C(c2nnnn2C(C)(C)C)N2CCc3ccccc3C2)c(F)c1` (stereo not shown) [Example 8]: the left shift value in test [1] (setting [3]) turned out to be 7.2 µM. The molecule further registered a T/C in test [2] (test concentration 10 uM) of 184.2%. In the case of `Cc1ccc(C(c2nnnn2C(C)(C)C)N2CCc3ccccc3C2)cc1` (stereo not shown) [Example 9], the left shift value in test [1] (setting [3]) came to 13.4 µM. Moreover, the T/C in test [2] (test concentration 10 uM) is 153.2%. As to `CC(C)(C)n1nnnc1C(c1ccc(Cl)cc1)N1CCc2ccccc2C1` (stereo not shown) [Example 10], the left shift value in test [1] (setting [3]) worked out at 110.9 µM. In test [2] (test concentration 10 uM), the T/C is given as 117.0%. Molecule `Cc1ccccc1C(c1nnnn1C(C)(C)C)N1CCc2ccccc2C1` (stereo not shown) [Example 11] yielded a T/C in test [2] (test concentration 10 uM) of 95%. Regarding `CC(C)(C)n1nnnc1C(c1ccccc1Br)N1CCc2ccc(Cl)cc2C1` (stereo not shown) [Example 17], the T/C in test [2] (test concentration 5 uM) was found to be 87%.

In the case of `CC(C)(C)n1nnnc1C(c1ccccc1N=O)N1CCc2ccc(Cl)cc2C1` (stereo not shown) [Example 18], the T/C in test [2] (test concentration 10 uM) is listed as 94.1%. `Cc1ccccc1C(c1nnnn1C(C)(C)C)N1CCc2ccc(Cl)cc2C1` (stereo not shown) [Example 19] registered a T/C in test [2] (test concentration 5 uM) of 90%. Molecule `CC(C)(C)n1nnnc1C(c1cc2ccccc2[nH]1)N1CCc2ccccc2C1` (stereo not shown) [Example 40] showed a T/C in test [2] (test concentration 10 uM) of 89.3%. With `CC1(n2nnnc2C(c2ccccc2)N2CCc3ccccc3C2)CCCCC1` (stereo not shown) [Example 41], the T/C in test [2] (test concentration 5 uM) is 116.3%. As for `COc1ccccc1C(C)(c1nnnn1C(C)(C)C)N1CCc2ccccc2C1` (stereo not shown) [Example 48], the T/C in test [2] (test concentration 10 uM) turned out to be 72.3%. As for `CC(C)(C)n1nnnc1C(c1cc2ccccc2s1)N1CCc2ccccc2C1` (stereo not shown) [Example 49], in test [2] (test concentration 10 uM), the T/C came out at 104.7%.

Take `CC(C)(C)n1nnnc1C(c1cc2ccccc2o1)N1CCc2ccccc2C1` (stereo not shown) [Example 50]: in test [2] (test concentration 10 uM), the T/C is recorded as 105.0%. In the case of `CC(C)(C)n1nnnc1C(c1ccccc1)N1CCc2sccc2C1` (stereo not shown) [Example 59, 5-((1-(tert-butyl)-1H-tetrazol-5-yl)(phenyl)methyl)-4,5,6,7-tetrahydrothieno[3,2-c]pyridine], the left shift value in test [1] (setting [4]) was 16.1 µM. On to `COc1ccccc1C(c1nnnn1C(C)(C)C)N1CCc2sccc2C1` (stereo not shown) [Example 60, 5-((1-(tert-butyl)-1H-tetrazol-5-yl)(2-methoxyphenyl)methyl)-4,5,6,7-tetrahydrothieno[3,2-c]pyridine], for which the left shift value in test [1] (setting [4]) is 10.5 µM. For `CC(C)(C)n1nnnc1C(c1cccs1)N1CCc2sccc2C1` (stereo not shown) [Example 62, 5-((1-(tert-butyl)-1H-tetrazol-5-yl)(thiophen-2-yl)methyl)-4,5,6,7-tetrahydrothieno[3,2-c]pyridine], the left shift value in test [1] (setting [4]) turned out to be 12.2 µM. As to `COc1ccc(C(c2nnnn2C(C)(C)C)N2CCc3sccc3C2)cc1` (stereo not shown) [Example 63, 5-((1-(tert-butyl)-1H-tetrazol-5-yl)(4-methoxyphenyl)methyl)-4,5,6,7-tetrahydrothieno[3,2-c]pyridine], the left shift value in test [1] (setting [4]) came to 34.9 µM. Take `CC(C)(C)n1nnnc1C(c1ccccc1Br)N1CCc2sccc2C1` (stereo not shown) [Example 65, 5-((2-bromophenyl)(1-(tert-butyl)-1H-tetrazol-5-yl)methyl)-4,5,6,7-tetrahydrothieno[3,2-c]pyridine]: the left shift value in test [1] (setting [4]) stood at 66.2 µM.

In the case of `CC(C)(C)n1nnnc1C(c1ccc[nH]1)N1CCc2sccc2C1` (stereo not shown) [Example 66, 5-((1-(tert-butyl)-1H-tetrazol-5-yl)(1H-pyrrol-2-yl)methyl)-4,5,6,7-tetrahydrothieno[3,2-c]pyridine], the left shift value in test [1] (setting [4]) turned out to be 84.5 µM. Still for that read-out and setting: with `CC(C)(C)n1nnnc1C(c1ccsc1)N1CCc2sccc2C1` (stereo not shown) [Example 68, 5-((1-(tert-butyl)-1H-tetrazol-5-yl)(thiophen-3-yl)methyl)-4,5,6,7-tetrahydrothieno[3,2-c]pyridine] the figure was 15.5 µM.

Regarding `CC(C)(C)n1nnnc1C(c1ccccc1F)N1CCc2sccc2C1` (stereo not shown) [Example 69, 5-((1-(tert-butyl)-1H-tetrazol-5-yl)(2-fluorophenyl)methyl)-4,5,6,7-tetrahydrothieno[3,2-c]pyridine], the left shift value in test [1] (setting [4]) was 20.6 µM. `CSc1ccccc1C(c1nnnn1C(C)(C)C)N1CCc2sccc2C1` (stereo not shown) [Example 70, 5-((1-(tert-butyl)-1H-tetrazol-5-yl)(2-(methylthio)phenyl)methyl)-4,5,6,7-tetrahydrothieno[3,2-c]pyridine]: the left shift value in test [1] (setting [4]) is 14.8 µM. The same measure, in the same setting: with `CC1(n2nnnc2C(c2ccccc2O)N2CCc3ccccc3C2)CCCCC1` (stereo not shown) [Example 71, 2-((3,4-dihydroisoquinolin-2(1H)-yl)-(1-(1-methylcyclohexyl)-1H-tetrazol-5-yl)methyl)phenol] the figure was 2.3 µM. For `COc1ccsc1C(c1nnnn1C(C)(C)C)N1CCc2sccc2C1` (stereo not shown) [Example 72, 5-((1-(tert-butyl)-1H-tetrazol-5-yl)(3-methoxythiophen-2-yl)methyl)-4,5,6,7-tetrahydrothieno[3,2-c]pyridine], the left shift value in test [1] (setting [4]) was determined as 3.2 µM. As to `CC(C)(C)n1nnnc1C(c1nccs1)N1CCc2ccccc2C1` (stereo not shown) [Example 73, 2-((1-(tert-butyl)-1H-tetrazol-5-yl)(3,4-dihydroisoquinolin-2(1H)-yl)methyl)thiazole], in test [1] (setting [4]), the left shift value came to 44.6 µM. As for `CC1(n2nnnc2C(c2cccs2)N2CCc3sccc3C2)CCCCC1` (stereo not shown) [Example 74, 5-((1-(1-methylcyclohexyl)-1H-tetrazol-5-yl)(thiophen-2-yl)methyl)-4,5,6,7-tetrahydrothieno[3,2-c]pyridine], the left shift value in test [1] (setting [4]) was determined as 8.6 µM. As to `COc1ccsc1C(c1nnnn1C1(C)CCCCC1)N1CCc2sccc2C1` (stereo not shown) [Example 75, 5-((3-methoxythiophen-2-yl)(1-(1-methylcyclohexyl)-1H-tetrazol-5-yl)methyl)-4,5,6,7-tetrahydrothieno[3,2-c]pyridine], in test [1] (setting [4]), the left shift value worked out at 2.1 µM. For the molecule `COc1ccccc1C(c1nnnn1C1(C)CCCCC1)N1CCc2sccc2C1` (stereo not shown) [Example 76, 5-((2-methoxyphenyl)(1-(1-methylcyclohexyl)-1H-tetrazol-5-yl)methyl)-4,5,6,7-tetrahydrothieno[3,2-c]pyridine], in test [1] (setting [4]), the left shift value was 7.2 µM. For `COc1c(F)cccc1C(c1nnnn1C(C)(C)C)N1CCc2ccccc2C1` (stereo not shown) [Example 80, 2-((1-(tert-butyl)-1H-tetrazol-5-yl)(3-fluoro-2-methoxyphenyl)methyl)-1,2,3,4-tetrahydroisoquinoline], the left shift value in test [1] (setting [4]) was determined as 26.5 µM. Regarding `COc1ccccc1C(c1nnnn1C(C)(C)C)N1CCC2CCCCC2C1` (stereo not shown) [Example 82, 2-((1-(tert-butyl)-1H-tetrazol-5-yl)(2-methoxyphenyl)methyl)deca-hydroisoquinoline], the left shift value in test [1] (setting [4]) amounted to 6.2 µM. For the molecule `CC1(n2nnnc2C(c2cccc(F)c2O)N2CCc3ccccc3C2)CCCCC1` (stereo not shown) [Example 83], the left shift value in test [1] (setting [4]) worked out at 25.0 µM.
